Reference: ChEMBL document CHEMBL4610097, “Daphnane Diterpenoids from Daphne genkwa Inhibit PI3K/Akt/mTOR Signaling and Induce Cell Cycle Arrest and Apoptosis in Human Colon Cancer Cells” (J Nat Prod, 2020)
Calls of active or inactive are those of the source. The rule behind the calls is not given here.

How the values were obtained:
[1] = system: SW-620; experiment: Induction of morphological changes in human SW620 cells assessed as nuclear condensation at […] to 1.48 uM after 24 hrs by acridine orange/propidium iodide staining based microscopic analysis; type: functional, cell-based
[2] = system: SW-620; experiment: Induction of cell cycle arrest in human SW620 cells assessed as accumulation at G2/M phase at 0.74 uM after 24 hrs by propidium iodide staining-based flow cytometric analysis (reference value: 20.06%); type: functional
[3] = system: SW-620; experiment: Induction of cell cycle arrest in human SW620 cells assessed as accumulation at S phase at 0.74 uM after 24 hrs by propidium iodide staining-based flow cytometric analysis (reference value: 23.83%); type: functional
[4] = system: SW-620; experiment: Induction of cell cycle arrest in human SW620 cells assessed as accumulation at S phase at 2.96 uM after 24 hrs by propidium iodide staining-based flow cytometric analysis (reference value: 23.83%); type: functional
[5] = system: SW-620; experiment: Induction of cell cycle arrest in human SW620 cells assessed as accumulation at G2/M phase at 5.92 uM after 24 hrs by propidium iodide staining-based flow cytometric analysis (reference value: 20.06%); type: functional
[6] = system: SW-620; experiment: Induction of cell cycle arrest in human SW620 cells assessed as accumulation at S phase at 5.92 uM after 24 hrs by propidium iodide staining-based flow cytometric analysis (reference value: 23.83%); type: functional
[7] = system: SW-620; experiment: Induction of apoptosis in human SW620 cells assessed as early apoptotic cells at 0.74 uM after 24 hrs by annexin V/propidium iodide staining-based flow cytometric analysis (reference value: 0.36%); type: functional
[8] = system: SW-620; experiment: Induction of apoptosis in human SW620 cells assessed as necrotic cells at 0.74 uM after 24 hrs by annexin V/propidium iodide staining-based flow cytometric analysis (reference value: 0.30%); type: functional
[9] = system: SW-620; experiment: Induction of apoptosis in human SW620 cells assessed as late apoptotic cells at 1.48 uM after 24 hrs by annexin V/propidium iodide staining-based flow cytometric analysis (reference value: 2.40%); type: functional
[10] = system: SW-620; experiment: Induction of apoptosis in human SW620 cells assessed as necrotic cells at 2.96 uM after 24 hrs by annexin V/propidium iodide staining-based flow cytometric analysis (reference value: 0.30%); type: functional
[11] = system: SW-620; experiment: Induction of apoptosis in human SW620 cells assessed as early apoptotic cells at 5.92 uM after 24 hrs by annexin V/propidium iodide staining-based flow cytometric analysis (reference value: 0.36%); type: functional
[12] = system: SW-620; experiment: Induction of apoptosis in human SW620 cells assessed as early apoptotic cells at 11.84 uM after 24 hrs by annexin V/propidium iodide staining-based flow cytometric analysis (reference value: 0.36%); type: functional
[13] = system: SW-620; experiment: Induction of apoptosis in human SW620 cells assessed as late apoptotic cells at 11.84 uM after 24 hrs by annexin V/propidium iodide staining-based flow cytometric analysis (reference value: 2.40%); type: functional
[14] = system: SW-620; experiment: Induction of apoptosis in human SW620 cells assessed as increase in cleaved caspase-9 at 0.74 to 11.84 uM after 24 hrs by Western blot analysis; type: functional, cell-based

## C=C(C)[C@@]12O[C@@]3(/C=C/C=C/CCCCC)O[C@@H]1[C@@H]1[C@H](O)[C@@](O)(CO)[C@@H](O)[C@]4(O)C(=O)C(C)=C[C@H]4[C@@]1(O3)[C@H](C)[C@H]2OC(=O)c1ccccc1
[1]
  Activity: Active
[2]
  Activity: 8.83%
[3]
  Activity: 14.24%
[4]
  Activity: 12.76%
[5]
  Activity: 3.52%
[6]
  Activity: 11.73%
[7]
  Activity: 3.24%
[8]
  Activity: 0.1%
[9]
  Activity: 48.5%
[10]
  Activity: 0.33%
[11]
  Activity: 4.67%
[12]
  Activity: 10.7%
[13]
  Activity: 86.3%
[14]
  Activity: Active
